# According to article PMC7729733, “Biological Properties of New Chiral 2-Methyl-5,6,7,8-tetrahydroquinolin-8-amine-based Compounds” (Molecules, 2020):
# Where two headings read alike, the source gives them in different places.
# What was measured:
# [1] = test system: HT-29 (colorectal adenocarcinoma); assay: Cell growth assay (Trypan blue), HT-29 cells; type: cell-based, human; settings: Homo sapiens, HT-29, pure enantiomers, 72 h
# Method: (§1) A2780 (human ovarian carcinoma) and HT-29 (human colorectal adenocarcinoma) were grown in RPMI 1640 (Sigma Chemical Co., St. Louis, MO, USA), and MSTO-211H (human biphasic mesothelioma) were grown in RPMI 1640 (Sigma Chemical Co.) supplemented with 2.38 g/L Hepes, 0.11 g/L pyruvate sodium, and 2.5 g/L glucose. Then, 1.5 g/L NaHCO3, 10% heat-inactivated fetal calf serum (Biowest), 100 U/mL penicillin, 100 μg/mL streptomycin, and 0.25 μg/mL amphotericin B (Sigma Chemical Co.) were added to the media. The cells were cultured at 37 °C in a moist atmosphere of 5% carbon dioxide in air. Cells (2.5–3 × 10^4) were seeded into each well of a 24-well cell culture plate. After incubation for 24 h, various concentrations of the test agents were added to the complete medium and incubated for a further 72 h. A Trypan blue assay was performed to determine cell viability. Cytotoxicity data were expressed as IC50 values, i.e., the concentration of the test compound able to induce a 50% reduction in cell number compared with control cultures.
# [2] = test system: A2780 (ovarian carcinoma); assay: Cell growth assay (Trypan blue), A2780 cells; type: cell-based, human
# Method: as §1
# [3] = test system: MSTO-211H (biphasic mesothelioma); assay: Cell growth assay (Trypan blue), MSTO-211H cells; type: cell-based, human; settings: pure enantiomers
# Method: as §1
# A2780 cells [4] = assay: Cell cycle analysis (propidium iodide, flow cytometry); type: cell-based, human; settings: 28 h, mean ± SD of four experiments
# Method: A2780 cells ([…]) were seeded into a 6-well culture plate in complete medium. After incubation for 24 h, the test compound was added at the indicated concentration and cells were incubated for a further 28 h. After treatment, cells were harvested, centrifugated, and 300–500 × 10^3 cells were fixed and permeabilized with 70% ice-cold ethanol at 4 °C for 20 min. The cells were washed twice with PBS and incubated in a staining solution containing 0.1 mg/mL RNAse and 36 μg/mL propidium iodide for 20 min at room temperature. The DNA content analysis was performed using a FACSCanto II flow cytometer (Becton-Dickinson, Mountain View, CA, USA).
# A2780 cells [5] = assay: Measurement of reactive oxygen species (H2DCF-DA); type: cell-based, human; settings: 50 μM, 120 min of incubation
# Method: The intracellular production of ROS was determined by using the cell-permeable fluorogenic probe 2′,7′-dichlorodihydrofluorescein diacetate (H2DCF-DA). A2780 cells (10^4) were seeded in 96-well plates and incubated for 24 h. The medium was then removed, and the cells washed with PBS and incubated with 10 μM H2DCF-DA in the dark for 20 min at 37 °C and 5% carbon dioxide in air. Afterwards, the medium was removed, cells washed with PBS, and PBS/10 mM glucose containing the test compound was added. ROS production was estimated by monitoring the fluorescence increase of the probe (λex = 480, λem = 530) using a PerkinElmer VICTOR X3 plate reader.
# [6] = test system: supercoiled plasmid pBR322 DNA; assay: Unwinding assay, electrophoretic mobility of supercoiled DNA; settings: 3 h at 37 °C
# Method: Figure 2SI. Effect of compound (R)-5a on the electrophoretic mobility of supercoiled DNA.
# Supercoiled plasmid pBR322 DNA was incubated in the absence or in the presence of (R)-5a at indicated concentrations. The effect of solvent alone on DNA was also assayed (solvent).
# Supercoiled pBR322 plasmid DNA (0.15 µg, Fermentas Life Sciences) was incubated in TAE buffer (0.04 M Tris, 0.02 M Acetic Acid, EDTA 1 mM, pH=8) with test compound at indicated concentrations for 3 h at 37 °C in 10 μL final volume. 3 μL of loading buffer (0.125% bromophenol blue, 0.125% xylene cyanol and 50% glycerol) was added to each sample and DNA was separated by electrophoresis on a 0.8% agarose gel at room temperature. The gels were stained with ethidium bromide (1 μg/mL) in TAE buffer, transilluminated by UV light, and the fluorescence emission was visualized by a CCD camera coupled to a Bio-Rad Gel Doc XR apparatus.
# (§2) (1 picture or pasted object on this page, not shown here)
# human topoisomerase I = target: T1, human topoisomerase I (Homo sapiens, UniProt P11387); assay: Topoisomerase I relaxation assay; type: biochemical; settings: supercoiled pBR322; 60 min at 37 °C
# T1 construct: purchased TopoGEN
# T1 sequence (P11387 1-765): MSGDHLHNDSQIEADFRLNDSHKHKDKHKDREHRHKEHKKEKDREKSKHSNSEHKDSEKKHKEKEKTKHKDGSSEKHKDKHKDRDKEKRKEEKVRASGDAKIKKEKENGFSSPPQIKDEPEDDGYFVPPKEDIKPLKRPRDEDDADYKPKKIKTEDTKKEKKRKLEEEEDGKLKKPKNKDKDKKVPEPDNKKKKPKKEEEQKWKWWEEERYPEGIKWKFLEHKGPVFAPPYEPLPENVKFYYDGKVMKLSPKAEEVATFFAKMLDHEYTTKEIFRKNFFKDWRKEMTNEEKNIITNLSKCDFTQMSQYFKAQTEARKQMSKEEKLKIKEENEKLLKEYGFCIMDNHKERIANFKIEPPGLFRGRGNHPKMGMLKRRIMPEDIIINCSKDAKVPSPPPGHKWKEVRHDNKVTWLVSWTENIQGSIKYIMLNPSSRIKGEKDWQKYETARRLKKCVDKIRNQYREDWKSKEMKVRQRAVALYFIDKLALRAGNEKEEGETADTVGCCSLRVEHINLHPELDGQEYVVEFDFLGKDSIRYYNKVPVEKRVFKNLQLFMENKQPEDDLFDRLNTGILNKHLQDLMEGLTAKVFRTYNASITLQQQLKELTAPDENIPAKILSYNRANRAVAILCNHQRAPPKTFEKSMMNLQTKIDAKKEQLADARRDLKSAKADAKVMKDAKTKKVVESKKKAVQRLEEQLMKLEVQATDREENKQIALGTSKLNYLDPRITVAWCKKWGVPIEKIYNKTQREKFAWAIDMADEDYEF
# Method: (§3) Figure 3SI. Effect of compound (R)-5a on the relaxation of supercoiled pBR322 DNA by human recombinant topoisomerase I or II. Supercoiled plasmid pBR322 DNA (DNA) was incubated with topo I (topo I) or II in the absence (topo II) and in the presence of (R)-5a at indicated […]
# (§4) Topoisomerase I and II relaxation assay
# (§5) Supercoiled pBR322 plasmid DNA (20 ng, Fermentas Life Sciences) and 5U topoisomerase I (human topoisomerase I, TopoGEN) or alternatively, supercoiled pBR322 plasmid DNA (0.25 μg) and 1U topoisomerase II (human topoisomerase II alpha, Inspiralis) were incubated in the presence of test compound as indicated for 60 min at 37 °C in 20 µL reaction buffer.Reactions were stopped by adding 4 μL stop buffer (5% sodium dodecyl sulfate, 0.125% b romophenol blue, and 30% glycerol), 50 μg/mL proteinase K (Sigma) and incubating for a further 30 min at 37 °C.
# (§6) The samples were separated by electrophoresis on a 1% agarose gel at room temperature. The gels were stained with ethidium bromide 1 μg/mL in TAE buffer (0.04 M Tris-acetate and 0.001 M EDTA), transilluminated by UV light, and fluorescence emission was visualized by a CCD camera coupled to a Bio-Rad Gel Doc XR apparatus.
# as §2
# [7] = target: T2, human topoisomerase II alpha (Homo sapiens, UniProt P11388); assay: Topoisomerase II relaxation assay; type: biochemical; settings: supercoiled pBR322; 60 min at 37 °C
# T2 construct: purchased Inspiralis
# T2 sequence (P11388 whole entry): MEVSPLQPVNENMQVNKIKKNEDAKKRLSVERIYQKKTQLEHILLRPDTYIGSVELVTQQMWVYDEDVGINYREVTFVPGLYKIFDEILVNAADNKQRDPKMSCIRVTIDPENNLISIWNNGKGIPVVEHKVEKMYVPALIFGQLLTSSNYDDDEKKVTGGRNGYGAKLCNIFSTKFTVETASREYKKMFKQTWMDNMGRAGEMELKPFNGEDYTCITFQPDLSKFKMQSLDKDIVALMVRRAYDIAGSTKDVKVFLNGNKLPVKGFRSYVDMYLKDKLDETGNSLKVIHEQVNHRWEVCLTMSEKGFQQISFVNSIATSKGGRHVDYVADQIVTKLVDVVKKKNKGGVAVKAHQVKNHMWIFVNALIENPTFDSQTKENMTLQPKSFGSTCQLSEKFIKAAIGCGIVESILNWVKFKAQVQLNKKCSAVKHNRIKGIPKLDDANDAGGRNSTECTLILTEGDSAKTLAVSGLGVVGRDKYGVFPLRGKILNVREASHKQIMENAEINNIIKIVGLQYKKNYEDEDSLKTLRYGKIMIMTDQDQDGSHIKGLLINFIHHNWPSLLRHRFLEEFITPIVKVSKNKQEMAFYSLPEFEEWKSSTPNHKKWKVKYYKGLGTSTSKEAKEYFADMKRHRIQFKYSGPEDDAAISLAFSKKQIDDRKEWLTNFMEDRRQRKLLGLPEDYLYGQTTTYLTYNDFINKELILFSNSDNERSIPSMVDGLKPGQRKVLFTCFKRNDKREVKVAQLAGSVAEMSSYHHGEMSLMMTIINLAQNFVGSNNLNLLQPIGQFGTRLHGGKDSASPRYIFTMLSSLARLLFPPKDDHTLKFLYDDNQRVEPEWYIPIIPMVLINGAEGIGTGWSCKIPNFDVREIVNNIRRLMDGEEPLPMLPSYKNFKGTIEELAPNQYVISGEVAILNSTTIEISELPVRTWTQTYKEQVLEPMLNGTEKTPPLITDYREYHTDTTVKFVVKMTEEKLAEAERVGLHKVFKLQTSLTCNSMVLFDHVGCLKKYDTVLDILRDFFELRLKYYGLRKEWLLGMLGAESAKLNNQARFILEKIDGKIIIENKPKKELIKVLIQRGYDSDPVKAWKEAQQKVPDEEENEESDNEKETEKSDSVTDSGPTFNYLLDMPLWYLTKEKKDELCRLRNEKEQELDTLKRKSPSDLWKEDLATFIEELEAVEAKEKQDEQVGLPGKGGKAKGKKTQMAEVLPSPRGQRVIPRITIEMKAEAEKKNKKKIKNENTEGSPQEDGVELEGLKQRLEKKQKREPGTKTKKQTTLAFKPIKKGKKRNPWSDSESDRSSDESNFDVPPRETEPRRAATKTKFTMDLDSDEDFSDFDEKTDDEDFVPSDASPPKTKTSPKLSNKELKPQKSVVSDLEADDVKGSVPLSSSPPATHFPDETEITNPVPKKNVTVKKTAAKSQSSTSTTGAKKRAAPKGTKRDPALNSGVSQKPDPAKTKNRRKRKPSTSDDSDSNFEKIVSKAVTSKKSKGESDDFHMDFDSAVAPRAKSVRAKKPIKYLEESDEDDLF
# Method: as §3, §4, §5, §6, §2
# [8] = test system: HT-29 (colorectal adenocarcinoma); settings: reference compound; cited from earlier work
# [9] = test system: A2780 (ovarian carcinoma); settings: reference compound; cited from earlier work
# [10] = test system: MSTO-211H (biphasic mesothelioma); settings: reference compound; cited from earlier work
# HCT-116 = test system: HCT-116; parameters: method as in PMID 30253345; settings: cytotoxicity; cited from earlier work
# [11] = test system: CEM (human T-lymphocyte cells); settings: read-out: IC50 CEM; reference compound; cited from earlier work
# [12] = test system: HeLa (human cervix carcinoma cells); settings: read-out: IC50 HeLa; reference compound; cited from earlier work
# [13] = test system: HMEC-1 (human dermal microvascular endothelial cells); settings: read-out: IC50 HMEC-1; reference compound; cited from earlier work
smiles,measurement,setting,value
"Cc1ccc2c(n1)[C@H](/N=C/c1ncc[nH]1)CCC2 [(R)-5a, (E)-1-(1H-imidazol-2-yl)-N-(2-methyl-5,6,7,8-tetrahydroquinolin-8-yl)methanimine]",IC50,[1],> 20 µM
same,inhibitory effect on the A2780 cell line with respect to its counterpart (S)-5a,[2]; R enantiomer versus S enantiomer,~3 fold
same,IC50,"[2]; pure enantiomers, 72 h, Trypan blue",5.4 ± 1.3 µM
same,IC50,"[3]; Homo sapiens, MSTO-211H, 72 h, Trypan blue",15.1 ± 1.5 µM
same,cytotoxic effect on MSTO-211H (in words),[3],appreciable inhibition on cell growth
same,cell percentage in G0/G1,A2780 cells [4]; 2.5 μM,61.2 ± 0.9%
same,cell percentage in G2/M,A2780 cells [4]; 2.5 μM,13.4 ± 0.7%
same,cell percentage in S,A2780 cells [4]; 2.5 μM,25.5 ± 0.6%
same,cell percentage in G0/G1,A2780 cells [4]; 5 μM,63.7 ± 0.6%
same,cell percentage in G2/M,A2780 cells [4]; 5 μM,12.1 ± 0.6%
same,cell percentage in S,A2780 cells [4]; 5 μM,24.1 ± 1.1%
same,cell percentage in G0/G1,A2780 cells [4]; 10 μM,70.3 ± 1.2%
same,cell percentage in G2/M,A2780 cells [4]; 10 μM,9.8 ± 0.6%
same,cell percentage in S,A2780 cells [4]; 10 μM,19.8 ± 0.9%
same,cell percentage in G0/G1,A2780 cells [4]; 20 μM,71.6 ± 0.7%
same,cell percentage in G2/M,A2780 cells [4]; 20 μM,9.0 ± 0.8%
same,cell percentage in S,A2780 cells [4]; 20 μM,19.5 ± 0.4%
same,intracellular amount of ROS with respect to untreated cells (control),A2780 cells [5],more than 4 fold
same,modification in the electrophoretic migration of supercoiled plasmid DNA,[6],unable to induce any modification
same,effect on the relaxation ability of topoisomerase I,human topoisomerase I,unable to induce
same,effect on the relaxation ability of topoisomerase II,[7],unable to induce
"COc1cc(NS(C)(=O)=O)ccc1Nc1c2ccccc2nc2ccccc12 [m-AMSA, Meta-amsacrine]",IC50,[8],0.039 ± 0.004 µM
same,IC50,[9],0.027 ± 0.005 µM
same,IC50,[10],0.019 ± 0.001 µM
"O=C(Sc1cccc2cccnc12)c1ccccc1Cl [QCBT7, Quinolin-chlorobenzothiazoate]",IC50,HCT-116,0.6 µM
"COc1ccc(/C=C\c2cc(OC)c(OC)c(OC)c2)cc1OP(=O)(O)O [CA-4P, Combretastatin A4P]",IC50,[11],0.095 ± 0.006 µM
same,IC50,[12],0.079 ± 0.003 µM
same,IC50,[13],0.0029 µM
